Series [1] deals with Normal human lung fibroblasts (NHLF). The series is described as follows: CCK-8 cell proliferation assay in normal human lung fibroblasts. The conditions noted are these: CCK-8, FIG. 19. It is filed as cell-based.
Series [2] relates to NHLF cells. Put plainly: Mitochondrial membrane potential (MTMP) analysis in NHLF. It is filed as cell-based, human. The conditions noted are these: for apoptosis in normal cells: measured with MTMP, Caspase3 and LDH, FIG. 20.
The subject of a further series is PC3 cells. The series is described as follows: Caspase-3/7 activity (apoptosis) in PC3 cells. It is filed as cell-based, human. The conditions noted are these: PC3, Caspase-3/7 activity, various concentrations. As to the method: Caspase-3/7 activity was measured by using a Caspase-3/7 assay kit (Promega, G8091). […] Afterwards, Caspase-3/7 activity was analyzed according to the manufacturer's protocol.

The subject of the next series is A549 cells. The series is described as follows: Immunocytochemistry for cell senescence morphology in A549 cells. It is filed as cell-based. To be noted: for effect of inducing cancer cell-specific cell senescence: summary of chromone scaffold derivatives, FIG. 21. As to the method:
The cells were incubated with Rhodamine Phalloidin (Thermo Fisher, Massachusetts, US) for 4 hours at room temperature. After washing, the cells were incubated with Alexa Fluor 488 (Abcam, Cambridge, UK)-conjugated secondary antibody. Images were analyzed by using EVOS M7000 (Invitrogen, CA, USA). Nuclei were counterstained with DAPI.

Another series has as its system H358 cells. The series is described as follows: CCK-8 cell proliferation assay in H358 cells. To be noted: H358, 30 μM or more, 72 hours. It is filed as cell-based. As to the method: H358 cells were seeded in 96-well plates at a concentration of 3×10^4 cells/well for 24 hours.
A further series concerns PANC1. The series is described as follows: CCK-8 cell proliferation assay in PANC1 cells. The conditions noted are these: Homo sapiens, PANC-1; PANC1, CCK-8, 72 hours. Format: cell-based, human.
The subject of series [3] is NHLF cells. Put plainly: LDH cytotoxicity assay in NHLF. Format: cell-based. To be noted: Homo sapiens, read-out: LDH: EC 50. As to the method:
(iii) LDH cytotoxicity assay detected LDH release by using an LDH assay kit (Abcam, ab56393). […] Absorbance values were measured at 450 nm in a microplate reader.

Series [4] has as its system NHLF cells. Put plainly: Caspase-3 activity assay in NHLF. It is filed as cell-based. To be noted: Homo sapiens, read-out: Caspase3: EC 50. As to the method: (ii) Caspase-3 activity assay was measured by using a Caspase-3 assay kit (Abcam, ab37401). […] Thereafter, protein was measured with BCA (Thermo, 23227), and the protein was adjusted to 50 μg per 50 μL of cell lysis buffer. Afterwards, Caspase-3 activity was analyzed according to the manufacturer's protocol.

The source of these data is US20240197722A1, “ANTICANCER COMPOSITION INDUCING CELL SENESCENCE AND CELL DEATH” (OSTEONEUROGEN INC., priority 2021, published 2024).

As to `O=C(CCCCCCC(=O)Nc1ccccc1)NO` [SAHA, suberoylanilide hydroxamic acid], in series [1], the “cell proliferation of normal cells” value is listed as “inhibited cell proliferation”. Besides, the “apoptosis in normal cells” value in the series on NHLF cells [2] is reported as “induced strong apoptosis”. In addition, the PC3 apoptosis entry with PC3 cells is recorded as “induced PC3 apoptosis in a concentration-dependent manner”.

Consider `COc1ccc(-c2cc(=O)c3c(O)c(OC)c(O)cc3o2)cc1OC` [ONG21001, Eupatilin], for which the “cell flatness (morphological change of cell senescence)” value in the series with A549 cells (A549, 20 μM each, 72 hours, FIG. 1) is on record as “specifically observed”.

As for `CC(=O)O[C@H]1C(=O)[C@@]2(C)[C@H]([C@H](OC(=O)c3ccccc3)[C@]3(O)C[C@H](OC(=O)[C@H](O)[C@@H](NC(=O)c4ccccc4)c4ccccc4)C(C)=C1C3(C)C)[C@]1(OC(C)=O)CO[C@@H]1C[C@@H]2O` [paclitaxel, reference compound], the inhibition of proliferation entry in the series with H358 cells is recorded as “inhibited the proliferation of non-small cell lung cancer cells to a similar level”. For the same compound, the IC50 in the series with PANC1 is 84.7 µM.

As to `COc1c(O)cc2oc(-c3ccc(O)cc3)cc(=O)c2c1O` [Histidulin, Hispidulin], the “effect of inducing cancer cell-specific cell senescence” value (from here on “effect”) in the series with A549 cells was “do not exert any effect”.

Take `COc1cc(-c2cc(=O)c3c(O)c(OC)c(O)cc3o2)ccc1O` [Jaceocidin, Jaceosidin]: the “effect” value with A549 cells is “do not exert any effect”.

Consider `O=c1cc(-c2ccc(O)cc2)oc2cc(O)cc(O)c12` [Apigenin], for which the “effect” value in the series with A549 cells is recorded as “does not induce”.

Turning to `COC(=O)c1ccc2c(c1)NC(=O)/C2=C(\Nc1ccc(N(C)C(=O)CN2CCN(C)CC2)cc1)c1ccccc1` [nintedanib], the “cell proliferation of normal cells” value in series [1] was “inhibited cell proliferation”. The IC50 in the series on NHLF cells [2] (Homo sapiens, read-out: MTMP: IC 50) amounted to 41 µM. Also, the “apoptosis in normal cells” value with NHLF cells [2] is reported as “induced strong apoptosis”. The EC50 came out at 218 µM in the series on NHLF cells [3] and 128 µM in the series on NHLF cells [4].
